# In PubChem BioAssay AID330 (DTP/NCI, 2004):
# “And” between values parts separate entries of the source, which are not always exact repeats. Equal entries are not always repeated. Toxic doses and inconclusive results are not listed.
# System: P388 leukemia ip, CD2F1 mice, survival T/C
# Assay: NCI In Vivo Anticancer Drug Screen. Data for tumor model P388 Leukemia (intraperitoneal) in CD2F1 (CDF1) mice
# Conditions: endpoint: median survival time, higher = longer survival
# How it was run: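 Mice carrying the transplanted tumor received test compound or vehicle. Survival was recorded in each group, and the value is the treated-group measurement divided by that of the vehicle-treated control group.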
# [1] = dose: 50.0 mg/kg/injection, schedule: Q01DX009 (ip), vehicle: Klucel (hydroxypropylcellulose) (HPC)
# [2] = dose: 100.0 mg/kg/injection, schedule: Q01DX009 (ip), vehicle: Klucel (hydroxypropylcellulose) (HPC)
# [3] = dose: 200.0 mg/kg/injection, schedule: Q01DX009 (ip), vehicle: Klucel (hydroxypropylcellulose) (HPC)
# [4] = dose: 400.0 mg/kg/injection, schedule: Q01DX009 (ip), vehicle: Klucel (hydroxypropylcellulose) (HPC)
# [5] = dose: 6.25 mg/kg/injection, schedule: Q01DX005 (ip), vehicle: saline with Tween-80
# [6] = dose: 12.5 mg/kg/injection, schedule: Q01DX005 (ip), vehicle: saline with Tween-80
# [7] = dose: 25.0 mg/kg/injection, schedule: Q01DX005 (ip), vehicle: saline with Tween-80
# [8] = dose: 200.0 mg/kg/injection, schedule: Q01DX005 (ip), vehicle: saline with Tween-80
# [9] = dose: 50.0 mg/kg/injection, schedule: Q01DX005 (ip), vehicle: saline with Tween-80
smiles,measurement,setting,value
CCOc1ccccc1C(=O)Nc1ccc(Br)cc1,T/C,[1],100 % of control
same,T/C,[2],99 % of control
same,T/C,"dose: 100.0 mg/kg/injection, schedule: Q01DX009 (ip), vehicle: saline with Tween-80",112 % of control
same,T/C,"dose: 100.0 mg/kg/injection, schedule: Q04DX003 (ip), vehicle: saline with Tween-80",100 % of control
same,T/C,[3],106 % of control
same,T/C,"dose: 200.0 mg/kg/injection, schedule: Q01DX009 (ip), vehicle: saline with Tween-80",104 % of control
same,T/C,"dose: 200.0 mg/kg/injection, schedule: Q04DX003 (ip), vehicle: saline with Tween-80",100 % of control
same,T/C,[4],97 % of control
same,T/C,"dose: 400.0 mg/kg/injection, schedule: Q01DX009 (ip), vehicle: saline with Tween-80",91 % of control
same,T/C,"dose: 400.0 mg/kg/injection, schedule: Q04DX003 (ip), vehicle: saline with Tween-80",95 % of control
CCN(CC)CCN=c1nc(/C=C\C=C\NN(C)C(=S)SC)c(C)nn1C,T/C,[5],103 % of control
same,T/C,[6],87 % of control
same,T/C,[7],89 % of control
same,T/C,[8],90 % of control
COc1ccc2ncc(COC(C)=O)c(COC(C)=O)c2c1,T/C,"dose: 50.0 mg/kg/injection, schedule: Q01DX005 (ip), vehicle: Klucel (hydroxypropylcellulose) (HPC)",99 % of control
same,T/C,"dose: 100.0 mg/kg/injection, schedule: Q01DX005 (ip), vehicle: Klucel (hydroxypropylcellulose) (HPC)",98 % of control
same,T/C,"dose: 200.0 mg/kg/injection, schedule: Q01DX005 (ip), vehicle: Klucel (hydroxypropylcellulose) (HPC)",102 % of control
CCC(=O)N(C)C(C)C(=O)OC1CC(=O)N(C)c2cc(cc(OC)c2Cl)CC(CBr)=C/C=C/C(OC)C2(O)CC(OC(=O)N2)C(C)C2OC12C (stereo not given),T/C,"dose: 32.0 micrograms/kg/injection, schedule: Q01DX009 (ip), vehicle: saline + alcohol",152 % of control
same,T/C,"dose: 64.0 micrograms/kg/injection, schedule: Q01DX009 (ip), vehicle: saline + alcohol",150 % of control
COc1ccc(NC(=O)CCC2=CC(=O)CC(c3ccccc3)O2)cc1 (stereo not given),T/C,"dose: 60.0 mg/kg/injection, schedule: Q01DX005 (ip), vehicle: saline with Tween-80",105 % of control
same,T/C,"dose: 124.0 mg/kg/injection, schedule: Q01DX005 (ip), vehicle: saline with Tween-80",104 % of control
same,T/C,"dose: 240.0 mg/kg/injection, schedule: Q01DX005 (ip), vehicle: saline with Tween-80",104 % of control
O=c1[nH]c2cc(Cl)ccc2c(CCl)c1Cl,T/C,"dose: 25.0 mg/kg/injection, schedule: Q01DX009 (ip), vehicle: saline with Tween-80",110 % of control
same,T/C,"dose: 50.0 mg/kg/injection, schedule: Q01DX009 (ip), vehicle: saline with Tween-80",110 % of control
CCN(CC)CCNc1ccc(COC(=O)NC)c2sc3ccccc3c(=O)c12,T/C,"dose: 1.56 mg/kg/injection, schedule: Q01DX009 (ip), vehicle: saline with Tween-80",116 % of control
same,T/C,"dose: 3.12 mg/kg/injection, schedule: Q01DX009 (ip), vehicle: saline with Tween-80",122 % of control
same,T/C,"dose: 6.25 mg/kg/injection, schedule: Q01DX009 (ip), vehicle: saline with Tween-80",119 % of control
Cn1c(-c2ccccc2)c2c(c1-c1ccccc1)C(=O)c1ccccc1C2=O,T/C,[1],95 % of control
same,T/C,[2],101 % of control
same,T/C,[3],100 % of control
C/C(=N\NC(=O)c1ccncc1)c1cccc(/C(C)=N/NC(=O)c2ccncc2)n1.CC(=O)[O-].CC(=O)[O-].[Zn+2],T/C,[6],110 % of control
same,T/C,[7],104 % of control
same,T/C,[9],88 % of control and 93 % of control
CN(C)CSc1nc2ccccc2s1,T/C,[1],96 % of control
same,T/C,[2],94 % of control
same,T/C,[3],94 % of control
same,T/C,[4],95 % of control
CCOC(=O)C(Cc1ccc(N(CCCl)CCCl)cc1)NC(=O)C(Cc1ccc(N)cc1)NC(C)=O (stereo not given),T/C,"dose: 3.12 mg/kg/injection, schedule: Q01DX005 (ip), vehicle: saline with Tween-80",123 % of control
same,T/C,[5],159 % of control
same,T/C,[6],207 % of control
same,T/C,[7],298 % of control
same,T/C,[9],104 % of control and 115 % of control and 117 % of control
same,T/C,"dose: 100.0 mg/kg/injection, schedule: Q01DX005 (ip), vehicle: saline with Tween-80",114 % of control and 120 % of control
same,T/C,[8],122 % of control
same,T/C,"dose: 400.0 mg/kg/injection, schedule: Q01DX005 (ip), vehicle: saline with Tween-80",115 % of control
